Measurements reported in article PMC4805082, “Seizure control by decanoic acid through direct AMPA receptor inhibition” (Brain, 2015).

Legend:
[1] = target: T1, AMPA receptor GluA1 (Homo sapiens, UniProt P42261); assay: Two-electrode voltage clamp, homomeric GluA1 AMPA receptor expressed in Xenopus oocytes; type: cell-based
T1 construct: expressed in transfected cells; host or cells: Xenopus laevis oocytes injected with cRNA
Method: The AMPA receptor (flip isoform) cDNAs inserted in a SP6 polymerase expression vector (pSP6T) were a generous gift from Prof. Ralf Schoepfer (NPP, UCL). RNA was transcribed in vitro from MluI linearized transcripts using the SP6 Promega RiboMAX® RNA synthesis kit according to manufacturer’s protocols except for the addition of 0.75 mM capping nucleotide m^7G(5’)ppp(5’)G (Promega) and 1.6 mM GTP. cRNA concentrations and integrity were estimated by the intensity of fluorescence bands in RNA denaturating gels. AMPA receptor cRNAs were mixed in a nominal 1:1 ratio and ∼5 ng was injected per oocyte.
Xenopus laevis oocytes were purchased from the European Xenopus Resource Centre, University of Portsmouth. Stage V to VI oocytes were mechanically dissected and then subjected to gentle shaking for ∼30–50 min at room temperature with modified Barth’s solution (in mM): 88 NaCl, 1 KCl, 2.4 NaHCO3, 0.82 MgCl2, 0.77 CaCl2, 15 Tris-Cl, adjusted to pH 7.4 with NaOH (Sigma-Aldrich), supplemented with 50 IU/ml penicillin and 50 µg/ml streptomycin (Invitrogen) and 50 µg/ml tetracycline (Sigma-Aldrich) and 1% collagenase (type 1A). Healthy oocytes were manually defolliculated and the injections of cRNA for homomeric subunits alone (GluA1), or heteromeric mixtures of two subunits together (GluA1/GluA2 or GluA2/GluA3) were made using an automated Drummond Nanoinject II injector. The oocytes were then incubated at 17°C in modified Barth’s solution for at least 48 h before use in electrophysiological recordings.
Experiments were performed at room temperature (∼21–23°C). An oocyte was placed in a recording chamber (0.3–0.5 ml volume) and perfused with ND96 solution (96 mM NaCl, 2 mM KCl, 1.8 mM CaCI2, 1 mM MgCl2, 5 mM HEPES, with pH adjusted to 7.5). Current and voltage electrodes were filled with 300 mM KCl and made from thin-walled borosilicate glass (GC150TF-7.5, Harvard Apparatus) using a PC-10 electrode puller (Narashige Instruments) and had resistances of 0.5–2 MΩ. Oocytes were voltage-clamped to a holding potential of −50 mV or −60 mV using a Turbo TEC-03 amplifier (npi electronics). […]

[2] = tested on: AMPA receptor mediated EPSCs in hippocampal CA1 pyramidal neurons; assay: Whole-cell patch clamp, evoked AMPA receptor mediated EPSCs in CA1 pyramidal cells; type: cell-based, rat; settings: n = 6
Method: (§1) Male Sprague-Dawley rats (postnatal Days 19–30) were sacrificed using an overdose of isoflurane or pentobarbitone (500 mg/kg). After decapitation the brain was rapidly removed, the hippocampus or entorhinal cortex-hippocampus slices was dissected from the brain and […] thick transverse slices were prepared on a VT1200S vibratome (Leica) or Vibratome (Vibratome® 1500 sectioning system, Intracell). The slicing was performed in ice-cold sucrose-based solution containing (in mM): 75 sucrose, 87 NaCl, 22 glucose, 2.5 KCl, 7 MgCl2, 1.25 NaH2PO4, 0.5 CaCl2 and 25 NaHCO3, pH 7.4, 315–330 mOsm equilibrated with 95% O2 plus 5% CO2. The slices were then stored in a continuously oxygenated humidified interface holding chamber containing oxygenated artificial CSF (in mM): 120 NaCl, 22 glucose, 2.5 KCl, 1.3 MgSO4, 1 NaH2PO4, 25 NaHCO3 and 2.5 CaCl2, pH 7.4 296 mOsm, where they recovered for at least 1 h before use.
For electrophysiological recording, the slices were placed in a recording chamber constantly perfused with 32–34°C oxygenated artificial CSF solution using a gravity-driven perfusion system. Whole-cell patch clamp recordings were performed on CA1 pyramidal cells (input resistance 330 ± 70 MΩ) visualized using an infrared differential contrast imaging system. For patching, standard walled borosilicate glass pipettes with a resistance of 2.5–3.5 MΩ were used, filled with an intracellular pipette solution containing (in mM): 120 Cs-methanesulphonate, 10 HEPES, 0.2 EGTA, 8 NaCl, 0.2 MgCl2, 2 Mg-ATP, 0.3Na-GTP, 5 QX314-Br, 10 phosphocreatine, pH adjusted to 7.2 and osmolality adjusted to 296 mOsm. Series resistance was monitored throughout experiments using a −5 mV step command and cells showing a >20% change in series resistance, a series of resistance of >20 MΩ or an unstable holding current were rejected. Recordings of excitatory postsynaptic currents (EPSCs) were performed in the presence of DL-APV (DL-2-amino-5-phosphonopentanoic; 100 µM), picrotoxin (100 µM) and CGP55845 (5 µM) to block NMDA-, GABAA- and GABAB-receptors, respectively. Decanoic acid (Sigma) was added to the perfusion solution. EPSCs were evoked by stimulation of Schaffer collaterals. Paired pulses were evoked with stimulations separated by 50 ms. Inhibitory postsynaptic current (IPSCs) were recorded in the presence of DL-APV (100 µM), NBQX (10 µM) and CGP55845 (5 µM) to block NMDA-, AMPA- and GABAB-receptors, respectively.
Recordings were obtained using a MultiClamp 700B amplifier (Axon instruments) and filtered at 4 kHz, digitized at 10 kHz, and stored on a PC. LabView8 (National instruments) was used for data acquisition and off-line analysis.

[3] = tested on: GABAA receptor mediated IPSCs in hippocampal CA1 pyramidal neurons; assay: Whole-cell patch clamp, evoked GABAA receptor mediated IPSCs in CA1 pyramidal cells; type: cell-based, rat; settings: 300 µM
Method: as §1, with “The slices were then stored in a continuously oxygenated humidified interface holding chamber containing oxygenated artificial CSF (in mM): 120 NaCl, 22 glucose, 2.5 KCl, 1.3 MgSO4, 1 NaH2PO4, 25 NaHCO3 and 2.5 CaCl2, pH 7.4 296 mOsm, where they recovered for at least 1 h before use.” left out
For electrophysiological recording, the slices were placed in a recording chamber constantly perfused with 32–34°C oxygenated artificial CSF solution using a gravity-driven perfusion system. […] Series resistance was monitored throughout experiments using a −5 mV step command and cells showing a >20% change in series resistance, a series of resistance of >20 MΩ or an unstable holding current were rejected. […] Inhibitory postsynaptic current (IPSCs) were recorded in the presence of DL-APV (100 µM), NBQX (10 µM) and CGP55845 (5 µM) to block NMDA-, AMPA- and GABAB-receptors, respectively. […]

T1 sequence (P42261 19-906 isoform P42261-2 limits assumed): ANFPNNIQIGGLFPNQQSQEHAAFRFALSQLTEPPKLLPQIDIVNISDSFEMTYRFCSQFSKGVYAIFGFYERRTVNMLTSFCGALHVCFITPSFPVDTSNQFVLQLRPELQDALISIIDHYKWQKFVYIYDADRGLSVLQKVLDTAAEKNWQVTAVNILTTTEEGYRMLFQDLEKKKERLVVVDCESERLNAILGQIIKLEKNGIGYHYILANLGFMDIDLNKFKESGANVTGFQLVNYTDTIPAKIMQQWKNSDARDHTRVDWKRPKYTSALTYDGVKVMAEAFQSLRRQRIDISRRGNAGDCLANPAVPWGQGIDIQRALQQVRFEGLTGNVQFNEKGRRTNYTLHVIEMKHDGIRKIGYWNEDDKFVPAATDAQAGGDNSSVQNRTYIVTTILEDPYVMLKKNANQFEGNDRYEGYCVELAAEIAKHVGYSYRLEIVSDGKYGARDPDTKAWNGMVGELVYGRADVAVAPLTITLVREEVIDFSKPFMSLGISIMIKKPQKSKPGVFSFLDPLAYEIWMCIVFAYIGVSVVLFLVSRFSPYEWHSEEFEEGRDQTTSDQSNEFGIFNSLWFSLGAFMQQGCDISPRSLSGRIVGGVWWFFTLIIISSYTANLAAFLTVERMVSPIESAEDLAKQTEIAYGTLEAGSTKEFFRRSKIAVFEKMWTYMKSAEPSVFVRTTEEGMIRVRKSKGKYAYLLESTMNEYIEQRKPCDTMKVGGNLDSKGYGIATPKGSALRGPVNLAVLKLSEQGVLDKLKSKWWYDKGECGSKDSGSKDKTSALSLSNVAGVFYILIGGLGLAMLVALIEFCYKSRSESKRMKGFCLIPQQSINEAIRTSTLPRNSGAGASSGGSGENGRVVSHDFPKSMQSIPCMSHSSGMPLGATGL

## CCCCCCCCCC(=O)O [decanoic acid]
[1]
  IC50: 2090 µM
[2]; 100 µM
  decrease of EPSC amplitude: 17.0 ± 5.6%
[2]; 300 µM
  decrease of EPSC amplitude: 38.9 ± 5.5%
[2]; 300 µM, versus baseline
  effect on 1/CV^2 for EPSCs: no effect
  effect on paired pulse ratio for EPSCs: did not affect
[3]
  effect on evoked IPSCs: no significant effect
[3]; versus baseline, n = 6
  effect on 1/CV^2 for IPSCs: no effect
